Key:
TTXs Na channels = assay: Whole-cell electrophysiological assay of TTXs Na currents in DRG neurons; assay type: cell-based, Sprague-Dawley rat
Source text: FIG. 7 illustrates that at a membrane potential of −55 mV, SNX-483 more potently blocks TTXi Na currents than TTXs Na currents. In experiments carried out in support of the present invention, DRGs containing predominantly TTXi Na currents and TTXs currents were superfused sequentially with increasing concentrations of SNX-483. […]
10-20 day old Sprague-Dawley rat pups were euthanized using CO2 or decapitation. Dorsal root ganglia were removed and placed in Dulbecco s Minimum Essential Medium supplemented with 10% (v/v) fetal bovine serum (DMEM). Ganglia were then cut into small pieces and transferred to DMEM containing 2 mg/ml collagenase and incubated for 30 minutes in a 37° C. incubator with 5% CO2 atmosphere. After 15 minutes incubation, the pieces were gently triturated by three passages through a glass capillary pulled to 0.2 mm i.d. The collagenase was then removed by three washes in 10 ml of DMEM. The final resuspension was into DMEM supplemented with 50 ng/ml NGF, 50 I.U./ml penicillin and […] streptomycin. Cells were then transferred onto glass coverslips coated with collagen and placed in a 37° C. incubator as above. […]
TTXs sodium currents can be measured in large DRG neurons or in other cells or cell lines lacking TTXi Na channels. […]

L-type Ca channel = assay: Fluorometric Ca flux in INDO1-loaded GH3 cells; assay type: cell-based; details: concentrations exceeding 300 AM (highest concentration tested)
Protocol: (§1) In parallel experiments, SNX-483 was tested for its ability to block voltage-dependent calcium (Ca) and voltage-dependent potassium (K) channels. N- and L-type Ca channel-mediated Ca fluxes were measured fluorometrically using INDO1—loaded IMR32 and GH3 cells, respectively. At concentrations exceeding […] (the highest concentration tested), SNX-483 had no effect on either type of Ca flux.

TTXi Na channels [1] = target: TTXi Na channels (Rattus norvegicus, UniProt Q62968); assay: Whole-cell electrophysiological assay of TTXi Na currents in capsaicin-sensitive DRG neurons; assay type: cell-based, Sprague-Dawley rat; details: DRG neuron; 400 μM, depolarizing steps from holding potential −80 mV; read-out: block of TTXi Na current
Source text: (§2) . Using a voltage paradigm during which a pair of depolarizing steps to −10 mV are separated by a 4 ms repolarizing step, greater than 90% of TTXs Na currents remain inactivated (FIG. 2B, see below). FIGS. 2C and 2D present voltage families of the TTXi (rapidly recovering Na current) and TTXs (slowly recovering Na current), respectively, generated using this paired-pulse paradigm. TTXs currents (FIG. 2D) were generated by subtracting Na currents obtained following a prepulse to −10 mV from those obtained without a prepulse. The fraction of the total Na current carried by the fast-recovering, TTXi, Na channel varied from cell to cell (generally from 70-90% of Na current is carried by a TTXi conductance in capsaicin-sensitive DRGs). […].
(§3) FIG. 4 presents Na currents obtained before and after exposure of cells to solutions containing 50, 100, 200, 500 and 1000 μM SNX-483 in a capsaicin-sensitive DRG neuron (PAN). […] In the experiments presented in FIG. 4, the capsaicin-sensitive neuron was held at −55 mV and stepped twice to −10 mV at 10 second intervals. Similar results have been obtained in every capsaicin-sensitive PAN tested (n=7). Only about 7% of the TTXi Na current that was blocked by 400 μM SNX-483 recovered within 15 minutes of continuously exchanging the recording chamber with fresh extracellular solution. […]

TTXi Na channels [2] = assay: as above; assay type: cell-based, Sprague-Dawley rat; details: membrane potential −55 mV
Source text: as §2, §3

N-type Ca channel = target: T1, N-type Ca channel (Homo sapiens, UniProt Q00975); assay: Fluorometric Ca flux in INDO1-loaded IMR32 cells; assay type: cell-based; details: concentrations exceeding 300 AM (highest concentration tested)
T1 construct: endogenous in cells; host or cells: IMR32 cells
Protocol: as §1

Kv1.4 K channel = target: T2, Kv1.4 K channel (Homo sapiens, UniProt P22459); assay: K currents of Shaker subfamily channels expressed in xenopus oocytes; assay type: cell-based; details: concentrations up to 1 μM
T2 construct: expressed in transfected cells; host or cells: Xenopus oocytes
Protocol: (§4) In addition, SNX-483 was evaluated for the ability to inhibit members of the Shaker subfamily of voltage-dependent K channels expressed in xenopus oocytes. At concentrations up to 1 μM, SNX-483 had no effect on K currents mediated by Kv1.1, Kv1.2, Kv1.3 or Kv1.4 K channels.

Kv1.1 K channel = target: T3, Kv1.1 K channel (Homo sapiens, UniProt Q09470); assay: as above; assay type: cell-based; details: concentrations up to 1 μM
T3 construct: expressed in transfected cells; host or cells: Xenopus oocytes
Protocol: as §4

Kv1.2 K channel = target: T4, Kv1.2 K channel (Homo sapiens, UniProt P16389); assay: as above; assay type: cell-based; details: concentrations up to 1 μM
T4 construct: expressed in transfected cells; host or cells: Xenopus oocytes
Protocol: as §4

Kv1.3 K channel = target: T5, Kv1.3 K channel (Homo sapiens, UniProt P22001); assay: as above; assay type: cell-based; details: concentrations up to 1 μM
T5 construct: expressed in transfected cells; host or cells: Xenopus oocytes
Protocol: as §4

T2 sequence (P22459 whole entry): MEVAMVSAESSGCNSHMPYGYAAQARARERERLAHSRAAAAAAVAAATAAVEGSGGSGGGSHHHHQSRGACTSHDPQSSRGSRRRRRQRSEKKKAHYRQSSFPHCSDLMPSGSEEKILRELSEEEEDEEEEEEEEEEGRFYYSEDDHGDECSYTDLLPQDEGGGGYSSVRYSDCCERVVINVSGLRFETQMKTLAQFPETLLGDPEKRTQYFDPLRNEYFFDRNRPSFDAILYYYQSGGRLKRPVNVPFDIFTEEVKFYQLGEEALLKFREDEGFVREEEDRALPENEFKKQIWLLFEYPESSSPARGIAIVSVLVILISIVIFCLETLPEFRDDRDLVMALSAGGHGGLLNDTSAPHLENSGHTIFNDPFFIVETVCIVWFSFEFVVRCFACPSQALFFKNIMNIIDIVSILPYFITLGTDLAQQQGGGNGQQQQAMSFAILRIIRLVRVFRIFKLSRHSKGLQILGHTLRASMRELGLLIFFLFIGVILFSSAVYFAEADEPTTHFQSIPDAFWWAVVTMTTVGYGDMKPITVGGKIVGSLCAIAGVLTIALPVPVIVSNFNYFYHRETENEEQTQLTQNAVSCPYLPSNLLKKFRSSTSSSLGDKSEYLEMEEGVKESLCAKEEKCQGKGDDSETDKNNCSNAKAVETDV
T1 sequence (Q00975 whole entry): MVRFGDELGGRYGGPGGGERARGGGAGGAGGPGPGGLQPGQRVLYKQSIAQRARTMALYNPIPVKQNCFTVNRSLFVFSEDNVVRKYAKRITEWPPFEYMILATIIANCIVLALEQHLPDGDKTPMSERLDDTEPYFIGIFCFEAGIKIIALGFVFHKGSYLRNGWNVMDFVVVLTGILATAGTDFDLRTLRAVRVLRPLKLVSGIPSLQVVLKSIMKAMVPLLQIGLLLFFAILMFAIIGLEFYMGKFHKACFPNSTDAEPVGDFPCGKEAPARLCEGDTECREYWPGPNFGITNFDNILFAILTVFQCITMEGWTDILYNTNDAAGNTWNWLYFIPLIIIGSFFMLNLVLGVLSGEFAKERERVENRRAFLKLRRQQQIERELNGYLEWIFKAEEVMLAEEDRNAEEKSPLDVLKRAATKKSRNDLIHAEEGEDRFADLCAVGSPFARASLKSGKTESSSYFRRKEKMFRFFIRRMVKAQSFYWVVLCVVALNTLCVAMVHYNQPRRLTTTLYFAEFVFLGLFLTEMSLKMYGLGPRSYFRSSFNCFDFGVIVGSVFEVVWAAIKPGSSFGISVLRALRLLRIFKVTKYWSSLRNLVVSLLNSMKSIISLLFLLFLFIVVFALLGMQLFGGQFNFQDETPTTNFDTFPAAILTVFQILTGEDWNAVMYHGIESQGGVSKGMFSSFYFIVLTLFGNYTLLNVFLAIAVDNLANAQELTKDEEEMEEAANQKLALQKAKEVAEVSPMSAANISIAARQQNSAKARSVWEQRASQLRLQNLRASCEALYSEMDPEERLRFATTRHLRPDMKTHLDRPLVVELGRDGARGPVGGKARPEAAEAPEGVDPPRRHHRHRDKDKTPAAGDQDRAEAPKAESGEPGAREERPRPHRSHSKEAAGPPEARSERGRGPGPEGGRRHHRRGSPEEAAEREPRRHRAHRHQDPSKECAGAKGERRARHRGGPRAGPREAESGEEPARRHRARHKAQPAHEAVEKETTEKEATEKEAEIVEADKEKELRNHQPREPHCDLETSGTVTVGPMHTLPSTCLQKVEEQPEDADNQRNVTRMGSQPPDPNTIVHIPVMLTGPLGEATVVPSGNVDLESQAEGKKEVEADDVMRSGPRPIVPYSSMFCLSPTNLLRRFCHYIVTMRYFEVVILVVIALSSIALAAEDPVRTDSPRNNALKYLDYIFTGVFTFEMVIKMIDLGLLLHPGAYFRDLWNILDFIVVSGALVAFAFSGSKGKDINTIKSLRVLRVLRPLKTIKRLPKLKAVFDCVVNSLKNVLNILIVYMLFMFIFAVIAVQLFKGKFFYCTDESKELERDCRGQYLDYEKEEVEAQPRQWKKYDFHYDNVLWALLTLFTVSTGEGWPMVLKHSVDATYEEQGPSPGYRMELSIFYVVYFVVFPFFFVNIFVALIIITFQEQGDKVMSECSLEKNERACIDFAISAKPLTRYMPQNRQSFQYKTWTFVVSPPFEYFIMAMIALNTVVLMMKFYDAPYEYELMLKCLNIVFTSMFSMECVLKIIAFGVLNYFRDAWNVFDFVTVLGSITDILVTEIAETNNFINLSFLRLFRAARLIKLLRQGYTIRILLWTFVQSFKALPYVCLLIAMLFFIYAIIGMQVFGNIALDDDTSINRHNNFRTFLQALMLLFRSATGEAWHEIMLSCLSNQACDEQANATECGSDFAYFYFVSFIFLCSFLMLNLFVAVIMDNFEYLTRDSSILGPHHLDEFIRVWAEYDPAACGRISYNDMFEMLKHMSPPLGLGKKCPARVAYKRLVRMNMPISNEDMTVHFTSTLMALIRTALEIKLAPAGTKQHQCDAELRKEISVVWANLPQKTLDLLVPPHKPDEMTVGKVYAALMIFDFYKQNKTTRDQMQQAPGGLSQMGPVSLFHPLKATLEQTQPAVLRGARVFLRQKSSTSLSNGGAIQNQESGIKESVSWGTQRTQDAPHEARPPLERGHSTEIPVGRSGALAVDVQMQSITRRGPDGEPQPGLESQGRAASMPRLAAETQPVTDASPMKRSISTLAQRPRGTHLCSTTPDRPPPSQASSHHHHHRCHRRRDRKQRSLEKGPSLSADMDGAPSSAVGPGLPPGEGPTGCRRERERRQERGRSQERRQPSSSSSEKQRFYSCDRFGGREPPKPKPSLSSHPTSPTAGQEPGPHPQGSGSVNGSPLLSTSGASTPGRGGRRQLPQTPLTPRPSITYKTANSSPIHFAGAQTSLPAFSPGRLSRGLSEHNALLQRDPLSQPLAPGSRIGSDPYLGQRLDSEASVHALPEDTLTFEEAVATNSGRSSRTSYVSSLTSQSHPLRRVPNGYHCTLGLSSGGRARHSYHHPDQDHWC
T1 sequence (P54289 957-1103, further chain): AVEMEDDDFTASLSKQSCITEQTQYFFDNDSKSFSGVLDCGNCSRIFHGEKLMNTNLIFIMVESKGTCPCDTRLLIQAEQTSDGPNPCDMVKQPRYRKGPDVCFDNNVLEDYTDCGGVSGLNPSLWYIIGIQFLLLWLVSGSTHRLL
T1 sequence (P54284 whole entry, further chain): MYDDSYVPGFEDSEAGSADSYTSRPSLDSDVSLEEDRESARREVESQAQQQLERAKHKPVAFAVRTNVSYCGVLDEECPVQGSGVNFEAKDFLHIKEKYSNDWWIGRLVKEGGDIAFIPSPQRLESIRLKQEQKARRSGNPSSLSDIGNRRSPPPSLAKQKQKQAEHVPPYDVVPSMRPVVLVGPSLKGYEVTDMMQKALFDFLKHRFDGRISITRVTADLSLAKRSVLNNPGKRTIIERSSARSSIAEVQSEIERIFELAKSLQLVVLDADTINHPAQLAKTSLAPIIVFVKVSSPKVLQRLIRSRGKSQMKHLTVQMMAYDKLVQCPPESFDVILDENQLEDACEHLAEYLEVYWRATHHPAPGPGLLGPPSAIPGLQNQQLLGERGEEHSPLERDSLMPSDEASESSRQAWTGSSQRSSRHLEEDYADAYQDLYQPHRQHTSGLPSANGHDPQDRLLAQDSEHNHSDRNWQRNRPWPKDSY
T1 sequence (P54289 25-956, further chain): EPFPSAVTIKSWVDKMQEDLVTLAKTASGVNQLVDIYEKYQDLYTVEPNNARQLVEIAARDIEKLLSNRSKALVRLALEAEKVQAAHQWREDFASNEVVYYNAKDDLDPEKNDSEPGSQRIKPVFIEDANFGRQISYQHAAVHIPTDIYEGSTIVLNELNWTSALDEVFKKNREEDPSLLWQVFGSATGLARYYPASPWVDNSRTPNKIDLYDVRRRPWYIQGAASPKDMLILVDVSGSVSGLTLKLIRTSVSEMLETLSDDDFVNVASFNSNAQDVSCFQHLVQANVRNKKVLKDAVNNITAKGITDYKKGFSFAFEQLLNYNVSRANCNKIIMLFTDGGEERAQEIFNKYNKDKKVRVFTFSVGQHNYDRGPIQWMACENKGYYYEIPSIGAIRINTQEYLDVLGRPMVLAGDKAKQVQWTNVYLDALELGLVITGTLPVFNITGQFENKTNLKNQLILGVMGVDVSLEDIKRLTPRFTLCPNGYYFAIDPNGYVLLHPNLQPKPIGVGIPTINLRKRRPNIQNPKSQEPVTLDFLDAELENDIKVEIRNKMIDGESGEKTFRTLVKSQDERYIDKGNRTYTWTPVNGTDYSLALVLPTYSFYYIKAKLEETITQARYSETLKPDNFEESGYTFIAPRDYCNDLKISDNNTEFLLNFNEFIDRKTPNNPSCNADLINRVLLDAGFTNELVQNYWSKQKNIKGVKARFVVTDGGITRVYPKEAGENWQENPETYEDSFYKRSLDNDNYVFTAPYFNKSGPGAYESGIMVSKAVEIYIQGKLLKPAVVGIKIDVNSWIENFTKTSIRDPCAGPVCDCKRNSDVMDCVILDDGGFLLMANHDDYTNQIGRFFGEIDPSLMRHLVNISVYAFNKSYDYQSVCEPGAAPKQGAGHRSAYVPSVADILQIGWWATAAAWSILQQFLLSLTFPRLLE
T3 sequence (Q09470 whole entry): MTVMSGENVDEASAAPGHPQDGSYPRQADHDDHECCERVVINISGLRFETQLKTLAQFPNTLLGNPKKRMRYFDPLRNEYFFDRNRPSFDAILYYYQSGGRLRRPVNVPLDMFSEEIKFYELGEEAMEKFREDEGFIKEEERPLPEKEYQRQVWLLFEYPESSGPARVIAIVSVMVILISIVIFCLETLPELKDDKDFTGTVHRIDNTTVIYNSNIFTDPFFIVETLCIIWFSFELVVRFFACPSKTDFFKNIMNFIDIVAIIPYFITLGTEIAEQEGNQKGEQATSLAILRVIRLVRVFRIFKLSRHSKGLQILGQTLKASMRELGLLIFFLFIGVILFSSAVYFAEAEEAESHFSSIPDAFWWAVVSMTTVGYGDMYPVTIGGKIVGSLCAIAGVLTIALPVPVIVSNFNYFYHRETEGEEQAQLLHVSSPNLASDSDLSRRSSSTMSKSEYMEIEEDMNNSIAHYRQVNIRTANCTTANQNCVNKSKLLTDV

## CCNCC(=O)Nc1c(C)ccc(O)c1C [SNX-483, 2-(ethylamino)-N-(3-hydroxy-2,6-dimethylphenyl) acetamide]
TTXs Na channels; 400 μM, large capsaicin-insensitive DRG clamped at −55 mV, 16 ms repolarizing step
  block of TTXs Na currents: does not block
TTXs Na channels; membrane potential −55 mV
  IC50: 222 ± 12 µM
L-type Ca channel
  effect on L-type Ca channel-mediated Ca flux: no effect
TTXi Na channels [1]
  inhibition at 400 µM: 20%
TTXi Na channels [2]
  Potency ratio 1/(IC50, TTXi/IC50, TTXs): 3.1
N-type Ca channel
  effect on N-type Ca channel-mediated Ca flux: no effect
Kv1.4 K channel
  effect on K currents mediated by Kv1.4: no effect
Kv1.1 K channel
  effect on K currents mediated by Kv1.1: no effect
Kv1.2 K channel
  effect on K currents mediated by Kv1.2: no effect
Kv1.3 K channel
  effect on K currents mediated by Kv1.3: no effect

Source: US6489119B1, “Analgesic screening method and composition” (priority 1996, dated 2002)
